According to US8765749B2, “1,6-disubstituted indole compounds as protein kinase inhibitors” (Korea Institute of Science and Technology, priority 2009, dated 2014):

Legend:
B-Raf (V600E) = target: T1, B-Raf (V600E) (Homo sapiens, UniProt P15056, V600E); assay: Measurement of B-Raf-V600E kinase activity (MEK1 (K97R) phosphorylation, [γ-32P] ATP); assay type: biochemical; details: read-out: B-Raf kinase inhibition activity (% inhibition at 1 μM)
T1 construct: purchased Cell Signaling #7663
Method: (1) Activation of MEK1 (K97R) by B-Raf
Base reaction buffer (20 mM Hepes (pH 7.5), 10 mM MgCl2, 1 mM EGTA, 0.02% Brij35, 0.02 mg/mL BSA, 0.1 mM Na3VO, 2 mM DTT, 1% DMSO) was prepared. B-Raf (V600E) (Cell Signaling #7663) diluted to 30 nM was added at a final concentration of 10 nM, and MEK1 (K97R) (Upstate #14-737) diluted to 3 μM was added at a final concentration of 1 μM. The test compound was prepared at a concentration of 10 mM in dimethylsulfoxide (DMSO) and diluted to various concentrations. The final volume was adjusted to 20 μL and, after completely mixing, the mixture was allowed to react at room temperature for 30 minutes.
(2) Phosphorylation of MEK1 (K97R)
[γ-32P] ATP (100 μCi/container) diluted to 1/10 was added in 10 μL aliquots. After completely mixing, the mixture was allowed to react at room temperature for 2 hours. After placing P81 paper in a scintillation vial, spotting was performed using 30 μL of the reaction mixture. After washing 3 times with 0.75% phosphoric acid for 10 minutes and washing once with acetone for 10 minutes, 5 mL of scintillation cocktail was added to the scintillation vial holding the washed P81 paper. Signals were recorded using a scintillation counter.

A375P cells = assay: Inhibition activity against proliferation of A375P melanoma cells (MTT assay); details: Homo sapiens, read-out: Inhibition activity against proliferation of A375P cells (GI50, μM)
SK-MEL28 cells = assay: Inhibition activity against proliferation of SK-MEL28 melanoma cells (MTT assay); details: Homo sapiens, SK-MEL-28, read-out: Inhibition activity against proliferation of SK-MEL28 cells (GI50, μM)
A375 melanoma cells = details: read-out: proliferation of A375 melanoma cells IC50; cited from earlier work
[1] = cited from earlier work

T1 sequence (P15056 whole entry V600E): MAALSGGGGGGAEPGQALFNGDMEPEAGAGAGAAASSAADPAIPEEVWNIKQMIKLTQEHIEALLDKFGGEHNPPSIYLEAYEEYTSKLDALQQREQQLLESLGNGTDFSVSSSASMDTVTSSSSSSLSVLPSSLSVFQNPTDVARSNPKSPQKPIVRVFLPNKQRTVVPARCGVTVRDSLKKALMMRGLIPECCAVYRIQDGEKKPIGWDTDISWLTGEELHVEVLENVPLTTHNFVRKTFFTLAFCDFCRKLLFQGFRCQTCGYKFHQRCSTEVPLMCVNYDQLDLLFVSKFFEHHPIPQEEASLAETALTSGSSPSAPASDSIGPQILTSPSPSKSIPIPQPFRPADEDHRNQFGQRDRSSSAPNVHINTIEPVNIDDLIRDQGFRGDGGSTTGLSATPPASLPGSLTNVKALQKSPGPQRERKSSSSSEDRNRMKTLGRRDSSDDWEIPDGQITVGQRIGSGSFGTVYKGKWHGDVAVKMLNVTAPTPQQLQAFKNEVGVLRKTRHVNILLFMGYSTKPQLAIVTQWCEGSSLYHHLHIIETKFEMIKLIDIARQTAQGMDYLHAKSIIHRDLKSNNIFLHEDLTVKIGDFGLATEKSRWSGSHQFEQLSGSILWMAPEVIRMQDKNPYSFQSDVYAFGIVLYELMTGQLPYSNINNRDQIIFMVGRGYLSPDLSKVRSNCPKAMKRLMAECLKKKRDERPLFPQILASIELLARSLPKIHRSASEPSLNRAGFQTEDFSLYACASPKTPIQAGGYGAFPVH

Row | Compound | inhibition at 1 µM (B-Raf (V600E)) [%] | GI50 (A375P cells) [µM] | GI50 (SK-MEL28 cells) [µM] | IC50 (A375 melanoma cells) [µM] | skin toxicity ([1]; 600 mg (twice a day)) | maximum allowed administration dose ([1]; clinical trial phase II, twice a day) [mg]
1 | CCCS(=O)(=O)Nc1ccc(F)c(C(=O)c2c[nH]c3ncc(Cl)cc23)c1F [PLX4720] |  |  |  | 0.5 |  | 
2 | CNC(=O)c1cc(Oc2ccc(NC(=O)Nc3ccc(Cl)c(C(F)(F)F)c3)cc2)ccn1 [sorafenib, Sorafenib] |  |  |  |  | grade 3 skin toxicity | 400

Second part, led by results:

Row | inhibition at 1 µM (B-Raf (V600E)) [%] | GI50 (A375P cells) [µM] | GI50 (SK-MEL28 cells) [µM] | Compound | IC50 (A375 melanoma cells) [µM] | skin toxicity ([1]; 600 mg (twice a day)) | maximum allowed administration dose ([1]; clinical trial phase II, twice a day) [mg]
3 | > 50 | < 10 | < 10 | CNc1cc(-n2ccc3ccc(-c4cccc(NC(=O)Nc5ccccc5OC)c4)cc32)ncn1 [Example 22, 1-(2-methoxyphenyl)-3-(3-(1-(6-(methylamino)pyrimidin-4-yl)-1H-indol-6-yl)phenyl)urea] |  |  | 
4 | > 50 | < 10 | < 10 | COc1ccccc1NC(=O)Nc1cccc(-c2ccc3ccn(-c4cc(NC(=O)C5CC5)ncn4)c3c2)c1 [Example 26, N-(6-(6-(3-(3-(2-methoxyphenyl)ureido)phenyl)-1H-indol-1-yl)pyrimidin-4-yl)cyclopropanecarboxamide] |  |  | 
5 | > 50 | < 10 | < 10 | COc1ccccc1NC(=O)Nc1ccc(C)c(-c2ccc3ccn(-c4cc(N)ncn4)c3c2)c1 [Example 21, 1-(3-(1-(6-aminopyrimidin-4-yl)-1H-indol-6-yl)-4-methylphenyl)-3-(2-methoxyphenyl)urea] |  |  | 
